Series [1] in a line: Ex vivo biodistribution in NCI-H727 tumor-bearing mice. The conditions noted are these: female, BALB/c nude, mouse, in vivo, 1.48 MBq, total radioactivity, Biodistribution. The procedure: (§1) Female BALB/c nude mice were obtained from Charles River Laboratories (Beijing, China). […] Approximately 5 × 10^6 cells were implanted into the right shoulder of each mouse to establish an NCI-H727 tumor model and Mc38 tumor model. Once the tumor volume reached 200–300 mm^3, the mice were used for imaging or biodistribution studies. All animal experiments were carried out in accordance with the National Institutes of Health Guidelines for the Care and Use of Laboratory Animals and were approved by the Animal Protection and Utilization Committee of the General Hospital of the PLA (Approval No.: S2023-209-1).
(§2) The NCI-H727 tumor-bearing mice were randomly assigned to four groups (with three mice in each group) and were injected with [^68Ga]Ga-TATE-46 (1.48 MBq, 100 µL). The mice were put to death at 0.5, 1, 2, and 4 h post-injection (p.i.). The tissues and organs of concern were gathered, weighed, and measured for radioactivity using a γ-counter. Additionally, [^68Ga]Ga-DOTA-TATE and [^68Ga]Ga-FAPI-46 were used as control groups in the biodistribution study of the NCI-H727 tumor model at 1 h p.i. After performing time decay correction, the radiotracer uptake in each tissue and organ was calculated as %ID/g.

A short description of series [2]: Pharmacokinetics, blood time-activity curves, two-compartment model. It is filed as in vivo, BALB/c mice. The method, then:
Nine female healthy BALB/c mice were randomly divided into three groups (with three mice in each group) using a random number table. Each group was administered 100 µL of [^68Ga]Ga-TATE-46, [^68Ga]Ga-DOTA-TATE, or [^68Ga]Ga-FAPI-46 (0.37 MBq) via tail vein injection. Blood samples (5 µL × 3) were collected at 2, 5, 10, 15, 30, 60, 90, and 120 min post-injection via tail vein. The radioactivity in the blood was measured with a γ-counter and converted to blood radioactivity concentration (kBq/mL). The pharmacokinetic data (time–blood radioactivity concentration) were analyzed by using the two-compartment model in the pharmacokinetic software WinNonlin (Certara, Louis, MO, USA, 2018-06) to determine the distribution and clearance half-life parameters of the radiopharmaceuticals in the mice.

Series [3] can be described thus: Partition coefficient (log P), n-octanol/PBS. Type of series: physicochemical. The method, then: In a 15 mL centrifuge tube, 2.9 mL of PBS (0.1 mol/L, pH = 7.4) and 3 mL of n-octanol were added. [^68Ga]Ga-TATE-46, [^68Ga]Ga-DOTA-TATE, or [^68Ga]Ga-FAPI-46 (14.8 MBq, 100 µL) were added to each tube. The mixture was vortexed at room temperature for 2 min to ensure thorough blending, and then centrifuged at room temperature (effective centrifuge radius 12 cm, 3000 rpm) for 5 min. After allowing sufficient time for phase separation, three 500 µL samples were taken from each layer. The radioactivity of each sample was measured using a γ-counter (count per minute, CPM), and log p = log (n-octanol CPM/water CPM) was calculated. The experiment was repeated three times.

Series [4] has as its system NCI-H727 tumor-bearing mice. Put plainly: Ex vivo biodistribution in NCI-H727 tumor-bearing mice. The conditions noted are these: 1 h p.i., γ-counter, mean ± SD, n=3. The procedure: as §1, §2
Setting [5] is: female healthy BALB/c mice, n = 3 per group, 0.37 MBq tail vein, blood 2-120 min, γ-counter, two-compartment model (WinNonlin).

The tissue uptake is the share of the injected amount in each gram of the tissue. As usually defined, the logD is lipophilicity at a set pH, counting ionised and neutral species.

`C[C@@H](O)[C@H](NC(=O)[C@@H]1CSSC[C@H](NC(=O)[C@@H](Cc2ccccc2)NC(=O)CN2CCN(CC(=O)O)CCN(CC(=O)O)CCN(CC(=O)O)CC2)C(=O)N[C@@H](Cc2ccc(O)cc2)C(=O)N[C@H](Cc2c[nH]c3ccccc23)C(=O)N[C@@H](CCCCN)C(=O)N[C@@H]([C@@H](C)O)C(=O)N1)C(=O)O` [[^68Ga]Ga-DOTA-TATE, metal not drawn, reference compound]: the tissue uptake at 1 h in series [1] (Blood) stood at 0.42 ± 0.15 %ID/g; in series [1] (Brain), 0.03 ± 0.01 %ID/g; in series [1] (Heart) it was 0.23 ± 0.09 %ID/g; in series [1] (Intestine), 1.48 ± 0.11 %ID/g; in series [1] (Kidney), 9.18 ± 3.65 %ID/g; in series [1] (Liver), 1.35 ± 0.28 %ID/g. Moreover, the tissue uptake at 1 h worked out at 5.22 ± 0.82 %ID/g in series [1] (Lung), 1.22 ± 0.11 %ID/g in series [1] (Spleen), 7.98 ± 0.89 %ID/g in series [1] (Stomach) and 1.57 ± 0.17 %ID/g in series [1] (Tumor (tumor uptake)). Also, the distribution half-life in series [2] (mouse, in vivo) is reported as 1.38 min. In series [2] (mouse, in vivo), this molecule yielded an elimination half-life of 19.50 min. This molecule also came in with a logD in series [3] (pH 7.4) of -3.02 ± 0.08.
In the case of `CN(CCCN1CCN(C(=O)CN2CCN(CC(=O)[O-])CCN(CC(=O)[O-])CCN(CC(=O)[O-])CC2)CC1)c1ccc2nccc(C(=O)NCC(=O)N3CC(F)(F)C[C@H]3C#N)c2c1.[68Ga+3]` [[^68Ga]Ga-FAPI-46, reference compound], the “Biodistribution, Tumor (tumor uptake)” value in series [4] (NCI-H727 tumor) came to 1.07 ± 0.01 %ID/g. Further, in series [4] (NCI-H727 tumor-bearing mice), the “Biodistribution, Blood” value is recorded as 1.05± 0.05 %ID/g; the “Biodistribution, Bone” value came out at 0.51± 0.05 %ID/g; the “Biodistribution, Brain” value came to 0.05± 0.01 %ID/g; the “Biodistribution, Heart” value came out at 0.39± 0.16 %ID/g. Besides, in series [4] (NCI-H727 tumor-bearing mice), the “Biodistribution, Intestine” value was found to be 0.38± 0.01 %ID/g; the “Biodistribution, Kidney” value is given as 2.25± 0.12 %ID/g; the “Biodistribution, Liver” value is 2.56± 0.95 %ID/g; the “Biodistribution, Lung” value was found to be 3.17± 0.79 %ID/g. In series [4] (NCI-H727 tumor-bearing mice), the “Biodistribution, Muscle” value amounted to 0.18± 0.02 %ID/g; the “Biodistribution, Spleen” value worked out at 3.75± 0.75 %ID/g; the “Biodistribution, Stomach” value is given as 0.38± 0.01 %ID/g. Besides, in series [2] (setting [5]), the distribution half-life worked out at 0.64 min and the elimination half-life was 21.77 min. The Log p in series [3] (shake-flask n-octanol/PBS (0.1 mol/L, pH 7.4), 14.8 MBq in 100 µL, vortexed 2 min at room temperature, centrifuged 3000 rpm 5 min, γ-counter CPM, mean ± SD, repeated three times) is on record as −3.05 ± 0.04.

For the origin of these results see PMC11677724, “Preclinical Study of a Dual-Target Molecular Probe Labeled with ^68Ga Targeting SSTR2 and FAP” (Pharmaceuticals, 2024).
